Laboratory results reported in patent US8741905B2, “Compounds and methods for treating autoimmune diseases” (The Broad Institute, Inc., priority 2010, dated 2014).
Read-outs that look alike come from different tables or passages of the source.

Key:
INS-1E cells [1] = test: Glucose-stimulated insulin secretion in cytokine-treated INS-1E cells; type: cell-based, rat; conditions: cytokines
Description: INS-1E cells were seeded in 96-well plates at 20,000 cells per well and incubated for 48 h in 100 μL of fresh RPMI containing 1% FBS and the cytokine cocktail, in the presence or absence of compounds. Cells were washed and incubated for 2 h in KRBH (135 mM NaCl, 3.6 mM KCl, 5 mM NaHCO3, 0.5 mM NaH2PO4, 0.5 mM MgCl2, 1.5 mM CaCl2, 10 mM HEPES, pH 7.4, 0.1% BSA) without glucose. Cells were subsequently incubated with KRBH containing 2 or 15 mM glucose for 1 h. The supernatant was taken for measurement of released insulin, and 100 μL of acidified ethanol was added to each well for extraction and measurement of cellular insulin content. Insulin was measured with a rat insulin ELISA kit (Alpco).

INS-1E cells [2] = test: Cellular ATP levels (CellTiter-Glo) in cytokine-treated INS-1E cells; suppression of cytokine-induced beta-cell apoptosis; type: cell-based, rat; conditions: Rattus norvegicus
Description: The compounds were analyzed for activity utilizing methods described in Chou et al. (ACS Chem. Biol. 2010 Aug. 20; 5(8):729-34).
INS-1E cells were seeded at 10,000 cells per well using a Multidrop Combi (Thermo Labsystems) in white optical 384-well plates (Corning Life Sciences). After overnight incubation, medium was removed and 50 μL of RPMI containing 1% FBS and a combination of cytokines (10 ng mL-^1 IL-1β, 50 ng mL^−1 IFN-γ, 25 ngmL^−1 TNF-α) was added to every well. Using libraries of compounds dissolved in DMSO and a CyBi-Well pin-transfer robot (CyBio Corp.), 0.1 μL of each compound was added. After 48 h, medium was removed and 20 μL of CellTiter-Glo reagent was added. Luminescence was measured after 10 min of incubation using an EnVision plate reader (PerkinElmer).
Instrument output files were processed using Pipeline Pilot (Accelrys) and input to MATLAB (The MathWorks) for data normalization. Compound performance scores relative to a distribution of mock-treated (DMSO) wells were calculated using a revised version of the scoring system underlying ChemBank. (Seiler et al., Nucleic Acids Res. 36, D351-359, 2008). The role of replicate treatments was further developed as follows: first, mock-treatment distributions were modeled using all mock-treated wells measured on a single day, regardless of their nominal replicate; second, per-compound scores weighted each in-plate background-subtracted measurement by the uncertainty in that measurement, using the method of maximum likelihood. The uncertainty in a single background-subtracted measurement was estimated using the number of mock-treated wells on the plate and, as a measure of the assay noise, the standard deviation of the per-day mock-treatment distribution. The signal, a weighted average of differences, was scaled by the noise, the standard deviation of the mock treatment distribution.
INS-1E cells were seeded at 10,000 cells/well using a Multidrop Combi (Thermo Labsystems) in white optical 384-well plates (Corning Life Sciences). After overnight incubation, medium was removed and 50 μL RPMI containing the treated compound, 1% FBS and a combination of cytokines (10 ng/mL IL-1β, 50 ng/mL IFN-γ, 25 ng/mL TNF-α) was added to every well. After incubation for 48 hr, medium was removed and 20 μL CellTiter-Glo reagent was added. Luminescence was measured after 10-min incubation using an EnVision plate reader (PerkinElmer).

STAT1 = test: GAS reporter assay (cytokine-induced STAT1 reporter gene activity); type: cell-based; conditions: FIG. 7
Description: INS-1E cells were transfected with plasmids (GAS reporter assay kit) using DharmaFECT reagent according to the manufacturer's protocol (SABiosciences) in white optical 384-well plates (Corning Life Sciences). After overnight incubation, medium was removed and 50 μL RPMI containing the treated compound, 1% FBS and a combination of cytokines (10 ng/mL IL-1β, 50 ng/mL IFN-γ, 25 ng/mL TNF-α) was added to every well. After treatment with cytokines and compounds for 18 hr, luminescence was measure using Dual-Glo according to the manufacturer's protocol (Promega).

C[C@@H]1CN([C@@H](C)CO)C(=O)c2cccc(NC(=O)Nc3cccc4ccccc34)c2O[C@H]1CN(C)S(=O)(=O)c1ccc2c(c1)OCCO2 [Compound 21A, N-(((2R,3R)-5-((S)-1-Hydroxypropan-2-yl)-3-methyl-10-(3-(naphthalen-1-yl)ureido)-6-oxo-3,4,5,6-tetrahydro-2H-benzo[b][1,5]oxazocin-2-yl)methyl)-N-methyl-2,3-dihydrobenzo-[b][1,4]dioxine-6-sulfonamide]
glucose-stimulated insulin secretion (GSIS) (INS-1E cells [1]): restored glucose-stimulated insulin secretion (GSIS), showing improved beta-cell function, to nearly normal levels
EC50 (INS-1E cells [2]; INS-1E, assay not named, read-out: EC50): 770 nM
IC50 (INS-1E cells [2]; INS-1E, read-out: IC50, inhibition of cytokine-induced beta cell apoptosis): 770 nM
EC50 (INS-1E cells [2]; INS-1E cells, cytokines IL-1β, IFN-γ, TNF-α, 48 h, CellTiter-Glo, read-out: CTG EC50 in HTS): > 100 nM
cytokine-induced STAT1 reporter gene activity (STAT1): inhibits cytokine-induced STAT1 reporter gene activity
